Data taken from ChEMBL document CHEMBL5442219.

Legend:
Settings in all cases: Compound concentration 10 µM
[1] = biological target: Mu-type opioid receptor (Homo sapiens) (UniProt P35372)
[2] = biological target: Sigma non-opioid intracellular receptor 1 (Homo sapiens) (UniProt Q99720)
[3] = biological target: Histamine H4 receptor (Homo sapiens) (UniProt Q9H3N8)
[4] = biological target: 5-hydroxytryptamine receptor 7 (Homo sapiens) (UniProt P34969)
[5] = biological target: Sigma intracellular receptor 2 (Homo sapiens) (UniProt Q5BJF2)
[6] = biological target: T1, Muscarinic acetylcholine receptor M1 (Homo sapiens) (UniProt P11229)
T1 sequence (whole entry): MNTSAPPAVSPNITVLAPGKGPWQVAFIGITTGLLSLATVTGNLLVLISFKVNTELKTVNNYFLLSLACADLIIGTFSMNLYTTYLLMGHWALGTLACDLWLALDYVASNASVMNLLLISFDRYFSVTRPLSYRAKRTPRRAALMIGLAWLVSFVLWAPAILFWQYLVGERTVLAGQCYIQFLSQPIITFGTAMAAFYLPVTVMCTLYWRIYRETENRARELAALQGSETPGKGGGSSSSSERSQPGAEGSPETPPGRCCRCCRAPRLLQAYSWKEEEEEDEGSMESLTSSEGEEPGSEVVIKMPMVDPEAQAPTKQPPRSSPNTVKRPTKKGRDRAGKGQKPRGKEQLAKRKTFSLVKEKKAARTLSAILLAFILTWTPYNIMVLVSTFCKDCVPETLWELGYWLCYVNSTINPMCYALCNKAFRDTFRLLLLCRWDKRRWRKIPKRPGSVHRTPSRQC

[7] = biological target: Sodium-dependent dopamine transporter (Homo sapiens) (UniProt Q01959)
[8] = biological target: T2, Alpha-2A adrenergic receptor (Homo sapiens) (UniProt P08913)
T2 sequence (whole entry): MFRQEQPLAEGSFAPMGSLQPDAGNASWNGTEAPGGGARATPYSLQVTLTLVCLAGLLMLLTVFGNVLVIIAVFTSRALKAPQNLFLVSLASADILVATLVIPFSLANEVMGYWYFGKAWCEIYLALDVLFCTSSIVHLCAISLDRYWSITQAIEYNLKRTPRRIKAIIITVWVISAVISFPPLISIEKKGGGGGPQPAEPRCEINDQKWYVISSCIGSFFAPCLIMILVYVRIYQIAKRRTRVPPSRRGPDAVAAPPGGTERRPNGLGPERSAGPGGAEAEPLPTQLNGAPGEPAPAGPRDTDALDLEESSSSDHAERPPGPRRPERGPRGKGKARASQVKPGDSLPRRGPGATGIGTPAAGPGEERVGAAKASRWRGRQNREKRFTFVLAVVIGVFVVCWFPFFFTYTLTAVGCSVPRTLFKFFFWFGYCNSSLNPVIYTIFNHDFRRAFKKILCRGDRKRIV

[9] = biological target: T3, D(4) dopamine receptor (Homo sapiens) (UniProt P21917)
T3 sequence (whole entry): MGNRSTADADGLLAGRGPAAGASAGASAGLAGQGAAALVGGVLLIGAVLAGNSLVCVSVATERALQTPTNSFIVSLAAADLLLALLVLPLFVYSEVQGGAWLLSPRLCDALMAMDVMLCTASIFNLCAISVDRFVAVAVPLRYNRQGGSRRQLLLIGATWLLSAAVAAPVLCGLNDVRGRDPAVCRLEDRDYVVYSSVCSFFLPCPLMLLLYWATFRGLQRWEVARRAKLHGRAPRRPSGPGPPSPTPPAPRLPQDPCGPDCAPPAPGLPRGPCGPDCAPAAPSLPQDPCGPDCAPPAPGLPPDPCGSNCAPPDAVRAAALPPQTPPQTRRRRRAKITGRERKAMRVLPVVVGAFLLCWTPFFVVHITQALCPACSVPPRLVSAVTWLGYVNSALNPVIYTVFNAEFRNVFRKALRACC

[10] = biological target: Histamine H3 receptor (Homo sapiens) (UniProt Q9Y5N1)
[11] = biological target: Beta-2 adrenergic receptor (Homo sapiens) (UniProt P07550)
[12] = biological target: 5-hydroxytryptamine receptor 1E (Homo sapiens) (UniProt P28566)
[13] = biological target: T4, Alpha-2B adrenergic receptor (Homo sapiens) (UniProt P18089)
T4 sequence (whole entry): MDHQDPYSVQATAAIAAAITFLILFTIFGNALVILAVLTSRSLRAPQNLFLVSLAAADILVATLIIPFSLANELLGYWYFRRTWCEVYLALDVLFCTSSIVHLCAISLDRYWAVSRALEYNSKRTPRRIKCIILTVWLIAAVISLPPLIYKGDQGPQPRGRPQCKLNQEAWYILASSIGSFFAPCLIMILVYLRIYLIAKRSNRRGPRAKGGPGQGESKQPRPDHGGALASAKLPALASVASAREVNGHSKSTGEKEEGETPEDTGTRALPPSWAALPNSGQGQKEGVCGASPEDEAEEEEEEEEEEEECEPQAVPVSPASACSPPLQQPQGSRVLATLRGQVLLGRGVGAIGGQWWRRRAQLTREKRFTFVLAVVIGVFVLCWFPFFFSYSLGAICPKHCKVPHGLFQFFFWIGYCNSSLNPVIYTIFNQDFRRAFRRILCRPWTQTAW

[14] = biological target: T5, Alpha-2C adrenergic receptor (Homo sapiens) (UniProt P18825)
T5 sequence (whole entry): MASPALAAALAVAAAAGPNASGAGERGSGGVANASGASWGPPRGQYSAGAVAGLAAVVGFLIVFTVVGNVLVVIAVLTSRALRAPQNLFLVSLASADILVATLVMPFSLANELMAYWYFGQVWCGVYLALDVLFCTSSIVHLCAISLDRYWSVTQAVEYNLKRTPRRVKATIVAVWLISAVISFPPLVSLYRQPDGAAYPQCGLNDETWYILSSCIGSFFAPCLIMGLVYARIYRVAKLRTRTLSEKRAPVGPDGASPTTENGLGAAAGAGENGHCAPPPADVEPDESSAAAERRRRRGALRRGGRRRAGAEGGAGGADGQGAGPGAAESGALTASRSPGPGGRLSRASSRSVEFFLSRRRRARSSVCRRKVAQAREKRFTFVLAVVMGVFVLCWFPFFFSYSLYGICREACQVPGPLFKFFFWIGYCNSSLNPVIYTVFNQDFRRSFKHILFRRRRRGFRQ

[15] = biological target: 5-hydroxytryptamine receptor 2B (Homo sapiens) (UniProt P41595)
[16] = biological target: Kappa-type opioid receptor (Homo sapiens) (UniProt P41145)
[17] = biological target: Translocator protein (Homo sapiens) (UniProt P30536)
[18] = biological target: 5-hydroxytryptamine receptor 1B (Homo sapiens) (UniProt P28222)
[19] = biological target: Histamine H1 receptor (Homo sapiens) (UniProt P35367)
[20] = biological target: 5-hydroxytryptamine receptor 1D (Homo sapiens) (UniProt P28221)
[21] = biological target: D(2) dopamine receptor (Homo sapiens) (UniProt P14416)
[22] = biological target: 5-hydroxytryptamine receptor 2A (Homo sapiens) (UniProt P28223)
[23] = biological target: D(1A) dopamine receptor (Homo sapiens) (UniProt P21728)
[24] = biological target: T6, 5-hydroxytryptamine receptor 3A (Homo sapiens) (UniProt P46098)
T6 sequence (whole entry): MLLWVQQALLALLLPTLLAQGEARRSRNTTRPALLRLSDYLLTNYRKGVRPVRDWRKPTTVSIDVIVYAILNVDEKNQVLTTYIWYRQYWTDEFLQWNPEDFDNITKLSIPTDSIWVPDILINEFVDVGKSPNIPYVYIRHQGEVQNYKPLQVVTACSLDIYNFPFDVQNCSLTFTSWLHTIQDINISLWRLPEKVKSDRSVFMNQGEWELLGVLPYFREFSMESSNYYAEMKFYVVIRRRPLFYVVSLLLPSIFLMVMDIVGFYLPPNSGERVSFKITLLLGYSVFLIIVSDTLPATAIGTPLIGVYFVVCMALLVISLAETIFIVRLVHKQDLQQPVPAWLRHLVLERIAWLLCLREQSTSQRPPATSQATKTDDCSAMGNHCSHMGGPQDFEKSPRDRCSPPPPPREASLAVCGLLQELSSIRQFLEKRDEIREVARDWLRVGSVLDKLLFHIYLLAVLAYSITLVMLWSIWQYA

[25] = biological target: D(3) dopamine receptor (Homo sapiens) (UniProt P35462)
[26] = biological target: T7, 5-hydroxytryptamine receptor 1A (Homo sapiens) (UniProt P08908)
T7 sequence (whole entry): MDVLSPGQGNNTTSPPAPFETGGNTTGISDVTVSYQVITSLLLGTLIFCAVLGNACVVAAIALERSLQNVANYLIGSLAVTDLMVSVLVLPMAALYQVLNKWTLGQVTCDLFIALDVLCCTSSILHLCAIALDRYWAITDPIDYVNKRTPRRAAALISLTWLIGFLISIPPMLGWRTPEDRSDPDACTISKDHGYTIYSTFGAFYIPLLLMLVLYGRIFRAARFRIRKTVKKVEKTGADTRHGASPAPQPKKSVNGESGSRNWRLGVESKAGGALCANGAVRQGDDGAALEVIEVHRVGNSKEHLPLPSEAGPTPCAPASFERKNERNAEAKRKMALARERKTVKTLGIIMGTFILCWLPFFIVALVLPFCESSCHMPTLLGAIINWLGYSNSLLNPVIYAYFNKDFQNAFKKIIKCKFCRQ

[27] = biological target: Histamine H2 receptor (Homo sapiens) (UniProt P25021)
[28] = biological target: Beta-3 adrenergic receptor (Homo sapiens) (UniProt P13945)
[29] = biological target: T8, Muscarinic acetylcholine receptor M4 (Homo sapiens) (UniProt P08173)
T8 sequence (whole entry): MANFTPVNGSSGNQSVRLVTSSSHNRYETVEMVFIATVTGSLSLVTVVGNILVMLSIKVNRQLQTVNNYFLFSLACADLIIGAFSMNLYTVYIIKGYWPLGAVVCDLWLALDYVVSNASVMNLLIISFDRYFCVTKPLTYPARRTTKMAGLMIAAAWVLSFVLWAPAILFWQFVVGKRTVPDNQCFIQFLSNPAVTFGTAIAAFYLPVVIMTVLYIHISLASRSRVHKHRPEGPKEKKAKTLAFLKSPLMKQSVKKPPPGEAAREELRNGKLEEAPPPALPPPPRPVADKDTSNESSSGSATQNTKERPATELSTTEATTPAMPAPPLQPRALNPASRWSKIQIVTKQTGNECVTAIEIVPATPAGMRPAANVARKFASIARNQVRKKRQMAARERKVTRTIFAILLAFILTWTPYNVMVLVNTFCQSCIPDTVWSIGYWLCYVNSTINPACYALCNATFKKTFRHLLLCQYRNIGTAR

[30] = biological target: Sodium-dependent serotonin transporter (Homo sapiens) (UniProt P31645)

Chain of 5-hydroxytryptamine receptor 1B (Homo sapiens) (P28222 whole entry): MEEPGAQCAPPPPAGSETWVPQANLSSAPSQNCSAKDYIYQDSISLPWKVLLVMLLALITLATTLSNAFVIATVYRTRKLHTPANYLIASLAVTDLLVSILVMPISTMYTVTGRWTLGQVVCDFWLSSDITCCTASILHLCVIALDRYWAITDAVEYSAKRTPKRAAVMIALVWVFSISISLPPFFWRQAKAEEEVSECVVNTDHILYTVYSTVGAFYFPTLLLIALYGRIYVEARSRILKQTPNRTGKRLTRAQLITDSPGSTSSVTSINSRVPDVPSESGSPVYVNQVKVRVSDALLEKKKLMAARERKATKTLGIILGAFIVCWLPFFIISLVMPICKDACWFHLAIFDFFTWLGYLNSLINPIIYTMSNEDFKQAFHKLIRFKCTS
Chain of Sodium-dependent dopamine transporter (Homo sapiens) (Q01959 whole entry): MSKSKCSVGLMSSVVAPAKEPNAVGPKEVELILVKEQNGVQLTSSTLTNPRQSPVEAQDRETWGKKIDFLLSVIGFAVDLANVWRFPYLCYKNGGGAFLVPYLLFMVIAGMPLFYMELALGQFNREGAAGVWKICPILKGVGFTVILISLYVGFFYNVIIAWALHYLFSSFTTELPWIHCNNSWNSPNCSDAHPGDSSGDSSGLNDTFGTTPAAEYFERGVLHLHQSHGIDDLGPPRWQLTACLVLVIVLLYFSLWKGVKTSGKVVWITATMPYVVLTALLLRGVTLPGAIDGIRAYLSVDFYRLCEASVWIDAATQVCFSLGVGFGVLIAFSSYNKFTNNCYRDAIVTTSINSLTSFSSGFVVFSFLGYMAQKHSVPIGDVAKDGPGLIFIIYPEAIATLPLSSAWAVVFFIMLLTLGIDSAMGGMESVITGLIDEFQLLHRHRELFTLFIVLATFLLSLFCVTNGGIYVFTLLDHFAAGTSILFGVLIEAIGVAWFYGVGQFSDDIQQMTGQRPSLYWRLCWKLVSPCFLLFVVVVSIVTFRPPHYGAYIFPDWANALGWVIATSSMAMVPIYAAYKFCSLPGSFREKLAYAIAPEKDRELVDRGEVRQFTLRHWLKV
Chain of D(2) dopamine receptor (Homo sapiens) (P14416 whole entry): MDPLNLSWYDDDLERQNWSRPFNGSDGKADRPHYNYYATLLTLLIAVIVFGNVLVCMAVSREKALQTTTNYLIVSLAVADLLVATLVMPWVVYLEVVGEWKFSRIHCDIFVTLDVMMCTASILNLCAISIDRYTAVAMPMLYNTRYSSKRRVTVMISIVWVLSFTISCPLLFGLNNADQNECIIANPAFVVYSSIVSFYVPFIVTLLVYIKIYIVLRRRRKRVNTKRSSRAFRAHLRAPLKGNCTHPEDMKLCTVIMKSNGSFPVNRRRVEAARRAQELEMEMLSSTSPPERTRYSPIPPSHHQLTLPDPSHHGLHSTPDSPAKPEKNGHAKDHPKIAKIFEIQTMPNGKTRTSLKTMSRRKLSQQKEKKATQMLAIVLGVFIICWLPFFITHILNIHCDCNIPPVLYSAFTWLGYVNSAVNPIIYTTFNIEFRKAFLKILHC
Chain of Beta-2 adrenergic receptor (Homo sapiens) (P07550 whole entry, looked up): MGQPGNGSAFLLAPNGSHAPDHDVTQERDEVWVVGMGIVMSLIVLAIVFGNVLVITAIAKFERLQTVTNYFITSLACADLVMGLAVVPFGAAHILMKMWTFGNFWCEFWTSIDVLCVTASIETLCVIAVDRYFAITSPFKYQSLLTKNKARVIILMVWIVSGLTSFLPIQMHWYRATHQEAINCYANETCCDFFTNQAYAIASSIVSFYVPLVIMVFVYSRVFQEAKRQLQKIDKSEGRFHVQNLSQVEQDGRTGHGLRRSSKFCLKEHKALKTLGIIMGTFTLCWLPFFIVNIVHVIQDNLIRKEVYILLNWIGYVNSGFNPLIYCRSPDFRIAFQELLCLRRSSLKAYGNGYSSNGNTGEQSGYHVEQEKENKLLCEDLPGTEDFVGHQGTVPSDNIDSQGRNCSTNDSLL
Chain of Histamine H1 receptor (Homo sapiens) (P35367 whole entry): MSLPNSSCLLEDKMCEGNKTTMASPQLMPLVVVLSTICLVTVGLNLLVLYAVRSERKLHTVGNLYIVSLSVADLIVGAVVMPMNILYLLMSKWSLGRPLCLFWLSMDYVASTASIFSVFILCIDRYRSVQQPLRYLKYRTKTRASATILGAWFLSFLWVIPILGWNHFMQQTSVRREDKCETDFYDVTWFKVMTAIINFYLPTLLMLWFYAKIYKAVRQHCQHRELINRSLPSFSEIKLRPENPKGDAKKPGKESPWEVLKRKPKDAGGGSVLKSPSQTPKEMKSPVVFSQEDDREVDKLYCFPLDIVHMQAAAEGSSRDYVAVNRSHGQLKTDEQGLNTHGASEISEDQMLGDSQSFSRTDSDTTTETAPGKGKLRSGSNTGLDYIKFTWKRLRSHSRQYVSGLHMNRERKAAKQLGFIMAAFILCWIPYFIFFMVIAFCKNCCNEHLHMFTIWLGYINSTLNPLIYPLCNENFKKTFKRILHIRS
Chain of Translocator protein (Homo sapiens) (P30536 whole entry): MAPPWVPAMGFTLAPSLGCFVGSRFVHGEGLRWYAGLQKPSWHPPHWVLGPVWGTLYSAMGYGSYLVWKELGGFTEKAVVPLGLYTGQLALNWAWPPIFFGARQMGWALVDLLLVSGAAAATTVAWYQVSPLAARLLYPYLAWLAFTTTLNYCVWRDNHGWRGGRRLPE
Chain of Histamine H3 receptor (Homo sapiens) (Q9Y5N1 whole entry): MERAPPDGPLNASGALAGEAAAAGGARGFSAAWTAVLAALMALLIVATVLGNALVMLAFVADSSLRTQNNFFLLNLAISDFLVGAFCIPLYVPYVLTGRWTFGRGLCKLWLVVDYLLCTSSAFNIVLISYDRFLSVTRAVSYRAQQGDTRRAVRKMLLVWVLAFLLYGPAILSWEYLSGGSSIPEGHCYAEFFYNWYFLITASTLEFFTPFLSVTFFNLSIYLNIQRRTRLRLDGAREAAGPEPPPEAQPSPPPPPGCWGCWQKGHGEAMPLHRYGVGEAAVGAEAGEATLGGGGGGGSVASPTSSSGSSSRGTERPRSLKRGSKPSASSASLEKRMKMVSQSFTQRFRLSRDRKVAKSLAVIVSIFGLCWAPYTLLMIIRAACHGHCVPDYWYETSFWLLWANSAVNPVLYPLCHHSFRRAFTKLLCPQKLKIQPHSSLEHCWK
Chain of 5-hydroxytryptamine receptor 2B (Homo sapiens) (P41595 whole entry): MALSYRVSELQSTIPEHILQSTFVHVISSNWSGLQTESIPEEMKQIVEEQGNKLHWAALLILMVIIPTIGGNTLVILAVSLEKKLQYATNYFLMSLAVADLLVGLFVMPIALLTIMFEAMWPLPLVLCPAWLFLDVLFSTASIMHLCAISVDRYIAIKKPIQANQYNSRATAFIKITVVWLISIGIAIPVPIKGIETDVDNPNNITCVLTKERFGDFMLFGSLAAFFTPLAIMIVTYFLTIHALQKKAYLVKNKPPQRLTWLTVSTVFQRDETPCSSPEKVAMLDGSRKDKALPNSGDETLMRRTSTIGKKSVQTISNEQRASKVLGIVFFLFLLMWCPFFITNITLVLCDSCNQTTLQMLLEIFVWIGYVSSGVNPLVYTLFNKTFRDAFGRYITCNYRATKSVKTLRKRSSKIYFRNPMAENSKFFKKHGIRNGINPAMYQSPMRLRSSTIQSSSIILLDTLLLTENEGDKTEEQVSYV
Chain of Kappa-type opioid receptor (Homo sapiens) (P41145 whole entry): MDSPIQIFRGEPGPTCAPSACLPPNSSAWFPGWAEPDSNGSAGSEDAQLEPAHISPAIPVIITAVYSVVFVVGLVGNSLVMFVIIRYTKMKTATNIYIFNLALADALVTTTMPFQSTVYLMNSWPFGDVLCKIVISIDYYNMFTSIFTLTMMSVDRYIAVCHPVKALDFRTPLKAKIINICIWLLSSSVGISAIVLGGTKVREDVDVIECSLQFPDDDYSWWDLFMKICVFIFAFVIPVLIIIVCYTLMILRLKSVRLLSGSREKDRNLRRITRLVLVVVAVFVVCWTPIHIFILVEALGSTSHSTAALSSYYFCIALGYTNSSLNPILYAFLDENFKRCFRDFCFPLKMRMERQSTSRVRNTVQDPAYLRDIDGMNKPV
Chain of Sigma non-opioid intracellular receptor 1 (Homo sapiens) (Q99720 whole entry): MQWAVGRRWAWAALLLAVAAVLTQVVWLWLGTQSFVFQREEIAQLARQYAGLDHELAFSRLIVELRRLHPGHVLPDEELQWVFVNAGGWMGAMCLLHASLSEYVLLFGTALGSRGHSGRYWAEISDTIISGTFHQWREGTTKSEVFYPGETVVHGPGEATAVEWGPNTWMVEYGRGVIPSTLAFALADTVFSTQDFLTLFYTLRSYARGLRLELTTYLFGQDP
Chain of 5-hydroxytryptamine receptor 1E (Homo sapiens) (P28566 whole entry): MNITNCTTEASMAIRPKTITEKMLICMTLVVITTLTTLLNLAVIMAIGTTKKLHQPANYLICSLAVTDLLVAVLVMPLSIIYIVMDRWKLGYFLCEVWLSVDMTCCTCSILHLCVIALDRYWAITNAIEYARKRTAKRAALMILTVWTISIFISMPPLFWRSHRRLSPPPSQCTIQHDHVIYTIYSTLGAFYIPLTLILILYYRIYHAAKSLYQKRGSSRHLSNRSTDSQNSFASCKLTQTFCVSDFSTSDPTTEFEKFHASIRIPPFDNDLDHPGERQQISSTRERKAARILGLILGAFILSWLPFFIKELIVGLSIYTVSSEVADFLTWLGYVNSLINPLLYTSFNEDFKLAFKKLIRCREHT
Chain of 5-hydroxytryptamine receptor 7 (Homo sapiens) (P34969 whole entry): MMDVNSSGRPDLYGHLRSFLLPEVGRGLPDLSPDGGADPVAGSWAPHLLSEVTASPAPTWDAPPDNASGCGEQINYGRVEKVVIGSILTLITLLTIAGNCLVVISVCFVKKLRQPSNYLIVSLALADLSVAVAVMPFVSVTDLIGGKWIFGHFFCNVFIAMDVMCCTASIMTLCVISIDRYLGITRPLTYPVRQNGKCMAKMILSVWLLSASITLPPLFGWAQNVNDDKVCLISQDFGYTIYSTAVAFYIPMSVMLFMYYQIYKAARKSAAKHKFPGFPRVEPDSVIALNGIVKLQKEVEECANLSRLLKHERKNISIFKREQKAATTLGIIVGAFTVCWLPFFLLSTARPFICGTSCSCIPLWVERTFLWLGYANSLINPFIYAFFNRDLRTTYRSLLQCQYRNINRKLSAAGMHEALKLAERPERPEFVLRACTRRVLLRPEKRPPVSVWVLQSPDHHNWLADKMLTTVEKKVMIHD

SMILES	inhibition [1] [%]	inhibition [2] [%]	inhibition [3] [%]	inhibition [4] [%]	inhibition [5] [%]	inhibition [7] [%]	inhibition [8] [%]	inhibition [9] [%]	inhibition [10] [%]	inhibition [11] [%]	inhibition [12] [%]	inhibition [15] [%]	inhibition [16] [%]	inhibition [17] [%]	inhibition [18] [%]	inhibition [19] [%]	inhibition [21] [%]	also measured
O=C(O)c1n[nH]c2c1C[C@H]1C[C@@H]21	-4.24	14.3	10	-5.09	11.9	1.37	8.74	-4.86	-7.4	3.75	5.8	15.1	-6.22	4.46	13	-7.37	-9.71	inhibition [6]: -7.24%; inhibition [13]: 3.24%; inhibition [14]: 1.98%; inhibition [20]: 17.2%
Cc1c(C(=O)NC2CCCCC2)sc2nc3ccc(N)cc3n12	8.54	62.8	1.51	6.55	10.3	17.7	-6.44	38.1	4.62	5.51	5.97	53.3	17.5	-2.67	27.8	11.7	-1.44	inhibition [22]: 10.5%; inhibition [23]: 7.6%; inhibition [24]: -6.74%; inhibition [25]: 36.7%; inhibition [26]: 33.1%; inhibition [27]: 21.4%; inhibition [28]: -9.6%; inhibition [29]: -5.41%; inhibition [30]: 7.26%
